Assay results: ChEMBL document CHEMBL1201861, “Genomics of Drug Sensitity in Cancer screening data, Wellcome Trust Sanger Institute”

The molecules below were run on CHP-212 (assay: cells). Settings: Homo sapiens.
Format: functional, cell-based
Description: SANGER: Inhibition of human CHP-212 cell growth in a cell viability assay.

| SMILES | IC50 |
| --- | --- |
| CCCCCCCCCCCC1=C(O)C(=O)C=C(O)C1=O [EMBELIN] | 3.12 µM |

What follows are molecules tested on COLO 205 (assay: cells). Settings: Homo sapiens.
Format: functional, cell-based
Description: SANGER: Inhibition of human COLO-205 cell growth in a cell viability assay.

| SMILES | IC50 |
| --- | --- |
| CCCCCCCCCCCC1=C(O)C(=O)C=C(O)C1=O [EMBELIN] | 3.87 µM |

These molecules were tested on MRK-nu-1 (assay: cells). Settings: Homo sapiens, MRK-nu-1.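 Note: cell viability assay measuring growth suppression of human MRK-nu-1 cells.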
Format: functional, cell-based, Homo sapiens
Description: SANGER: Inhibition of human MRK-nu-1 cell growth in a cell viability assay.

| SMILES | IC50 |
| --- | --- |
| CCCCCCCCCCCC1=C(O)C(=O)C=C(O)C1=O [EMBELIN] | 12.9 µM |

What follows are molecules tested on NCI-H727 (assay: cells). Settings: Homo sapiens.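 Note: growth inhibition of human NCI-H727 cells, read out with a cell viability assay.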
Format: functional, cell-based
Description: SANGER: Inhibition of human NCI-H727 cell growth in a cell viability assay.

| SMILES | IC50 |
| --- | --- |
| CCCCCCCCCCCC1=C(O)C(=O)C=C(O)C1=O [EMBELIN] | 7.88 µM |

What follows are molecules tested on BFTC-905 (assay: cells). Settings: Homo sapiens.
Format: functional, cell-based
Description: SANGER: Inhibition of human BFTC-905 cell growth in a cell viability assay.

| SMILES | IC50 |
| --- | --- |
| CCCCCCCCCCCC1=C(O)C(=O)C=C(O)C1=O [EMBELIN] | 5.03 µM |

What follows are molecules tested on HMV-2 cell line (assay: cells). Settings: Homo sapiens.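 Note: growth inhibition of HMV-II cells, read out with a cell viability assay.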
Format: functional, cell-based
Description: SANGER: Inhibition of human HMV-II cell growth in a cell viability assay.

| SMILES | IC50 |
| --- | --- |
| CCCCCCCCCCCC1=C(O)C(=O)C=C(O)C1=O [EMBELIN] | 4.61 µM |

These molecules were tested on NCI-H1693 (assay: cells). Settings: Homo sapiens.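 Note: growth inhibition of the human cell line, read out with a cell viability assay.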
Format: functional, cell-based
Description: SANGER: Inhibition of human NCI-H1693 cell growth in a cell viability assay.

| SMILES | IC50 |
| --- | --- |
| CCCCCCCCCCCC1=C(O)C(=O)C=C(O)C1=O [EMBELIN] | > 32 µM |

The molecules below were run on RERF-LC-MS (assay: cells). Settings: Homo sapiens.
Format: functional, cell-based
Description: SANGER: Inhibition of human RERF-LC-MS cell growth in a cell viability assay.

| SMILES | IC50 |
| --- | --- |
| CCCCCCCCCCCC1=C(O)C(=O)C=C(O)C1=O [EMBELIN] | 30.6 µM |

These molecules were tested on LC-1F (assay: cells). Settings: Homo sapiens, LC-1F.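 Note: growth inhibition of human LC-1F cells, read out with a cell viability assay.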
Format: functional, cell-based, Homo sapiens
Description: SANGER: Inhibition of human LC-1F cell growth in a cell viability assay.

| SMILES | IC50 |
| --- | --- |
| CCCCCCCCCCCC1=C(O)C(=O)C=C(O)C1=O [EMBELIN] | 31.2 µM |

Each molecule was assayed on TCC-SUP (assay: cells). Settings: Homo sapiens.
Format: functional, cell-based
Description: SANGER: Inhibition of human TCCSUP cell growth in a cell viability assay.

| SMILES | IC50 |
| --- | --- |
| CCCCCCCCCCCC1=C(O)C(=O)C=C(O)C1=O [EMBELIN] | 11.6 µM |

The molecules below were run on CMK (assay: cells). Settings: Homo sapiens, CMK.
Format: functional, cell-based, Homo sapiens
Description: SANGER: Inhibition of human CMK cell growth in a cell viability assay.

| SMILES | IC50 |
| --- | --- |
| CCCCCCCCCCCC1=C(O)C(=O)C=C(O)C1=O [EMBELIN] | 10.7 µM |

The molecules below were run on Detroit 562 (assay: cells). Settings: Homo sapiens.
Format: functional, cell-based
Description: SANGER: Inhibition of human Detroit562 cell growth in a cell viability assay.

| SMILES | IC50 |
| --- | --- |
| CCCCCCCCCCCC1=C(O)C(=O)C=C(O)C1=O [EMBELIN] | 11.5 µM |

The molecules below were run on BEN (assay: cells). Settings: Homo sapiens.
Format: functional, cell-based
Description: SANGER: Inhibition of human BEN cell growth in a cell viability assay.

| SMILES | IC50 |
| --- | --- |
| CCCCCCCCCCCC1=C(O)C(=O)C=C(O)C1=O [EMBELIN] | > 32 µM |

Each molecule was assayed on D-542MG (assay: cells). Settings: Homo sapiens.
Format: functional, cell-based
Description: SANGER: Inhibition of human D-542MG cell growth in a cell viability assay.

| SMILES | IC50 |
| --- | --- |
| CCCCCCCCCCCC1=C(O)C(=O)C=C(O)C1=O [EMBELIN] | 3.13 µM |

These molecules were tested on SW837 (assay: cells). Settings: Homo sapiens.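 Note: growth inhibition of SW837 cells, determined with a cell viability assay.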
Format: functional, cell-based
Description: SANGER: Inhibition of human SW837 cell growth in a cell viability assay.

| SMILES | IC50 |
| --- | --- |
| CCCCCCCCCCCC1=C(O)C(=O)C=C(O)C1=O [EMBELIN] | 18 µM |

Each molecule was assayed on NB12 (assay: cells). Settings: Homo sapiens.
Format: functional, cell-based
Description: SANGER: Inhibition of human NB12 cell growth in a cell viability assay.

| SMILES | IC50 |
| --- | --- |
| CCCCCCCCCCCC1=C(O)C(=O)C=C(O)C1=O [EMBELIN] | 8.23 µM |

Each molecule was assayed on HCC1143 (assay: cells). Settings: Homo sapiens.
Format: functional, cell-based
Description: SANGER: Inhibition of human HCC1143 cell growth in a cell viability assay.

| SMILES | IC50 |
| --- | --- |
| CCCCCCCCCCCC1=C(O)C(=O)C=C(O)C1=O [EMBELIN] | 7.14 µM |

The molecules below were run on EW-24 (assay: cells). Settings: Homo sapiens, EW-24.
Format: functional, cell-based, Homo sapiens
Description: SANGER: Inhibition of human EW-24 cell growth in a cell viability assay.

| SMILES | IC50 |
| --- | --- |
| CCCCCCCCCCCC1=C(O)C(=O)C=C(O)C1=O [EMBELIN] | > 32 µM |

These molecules were tested on SNG-M (assay: cells). Settings: Homo sapiens.
Format: functional, cell-based
Description: SANGER: Inhibition of human SNG-M cell growth in a cell viability assay.

| SMILES | IC50 |
| --- | --- |
| CCCCCCCCCCCC1=C(O)C(=O)C=C(O)C1=O [EMBELIN] | 7.05 µM |

These molecules were tested on NCI-H1792 (assay: cells). Settings: Homo sapiens.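 Note: growth inhibition of human NCI-H1792 cells, read out as cell viability.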
Format: functional, cell-based
Description: SANGER: Inhibition of human NCI-H1792 cell growth in a cell viability assay.

| SMILES | IC50 |
| --- | --- |
| CCCCCCCCCCCC1=C(O)C(=O)C=C(O)C1=O [EMBELIN] | 23.1 µM |

The molecules below were run on GDM-1 (assay: cells). Settings: Homo sapiens, GDM-1; read-out: IC50.
Format: functional, cell-based, Homo sapiens
Description: SANGER: Inhibition of human GDM-1 cell growth in a cell viability assay.

| SMILES | IC50 |
| --- | --- |
| CCCCCCCCCCCC1=C(O)C(=O)C=C(O)C1=O [EMBELIN] | 28 µM |

These molecules were tested on SW-620 (assay: cells). Settings: Homo sapiens.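 Note: growth inhibition of human SW-620 cells, measured by a cell viability assay.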
Format: functional, cell-based
Description: SANGER: Inhibition of human SW620 cell growth in a cell viability assay.

| SMILES | IC50 |
| --- | --- |
| CCCCCCCCCCCC1=C(O)C(=O)C=C(O)C1=O [EMBELIN] | 28.8 µM |

What follows are molecules tested on COLO-741 (assay: cells). Settings: Homo sapiens.
Format: functional, cell-based
Description: SANGER: Inhibition of human COLO-741 cell growth in a cell viability assay.

| SMILES | IC50 |
| --- | --- |
| CCCCCCCCCCCC1=C(O)C(=O)C=C(O)C1=O [EMBELIN] | 7.42 µM |

Each molecule was assayed on SNU-475 (assay: cells). Settings: Homo sapiens.
Format: functional, cell-based
Description: SANGER: Inhibition of human SNU-475 cell growth in a cell viability assay.

| SMILES | IC50 |
| --- | --- |
| CCCCCCCCCCCC1=C(O)C(=O)C=C(O)C1=O [EMBELIN] | > 32 µM |

These molecules were tested on COR-L23 (assay: cells). Settings: Homo sapiens.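 Note: cell viability assay measuring how strongly compounds suppress growth of COR-L23 cells.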
Format: functional, cell-based
Description: SANGER: Inhibition of human COR-L23 cell growth in a cell viability assay.

| SMILES | IC50 |
| --- | --- |
| CCCCCCCCCCCC1=C(O)C(=O)C=C(O)C1=O [EMBELIN] | 9.63 µM |

Each molecule was assayed on LoVo (assay: cells). Settings: Homo sapiens.
Format: functional, cell-based
Description: SANGER: Inhibition of human LoVo cell growth in a cell viability assay.

| SMILES | IC50 |
| --- | --- |
| CCCCCCCCCCCC1=C(O)C(=O)C=C(O)C1=O [EMBELIN] | 3.87 µM |

The molecules below were run on UACC-893 (assay: cells). Settings: Homo sapiens.
Format: functional, cell-based
Description: SANGER: Inhibition of human UACC-893 cell growth in a cell viability assay.

| SMILES | IC50 |
| --- | --- |
| CCCCCCCCCCCC1=C(O)C(=O)C=C(O)C1=O [EMBELIN] | 21.7 µM |

The molecules below were run on PC-14 (assay: cells). Settings: Homo sapiens.
Format: functional, cell-based
Description: SANGER: Inhibition of human PC-14 cell growth in a cell viability assay.

| SMILES | IC50 |
| --- | --- |
| CCCCCCCCCCCC1=C(O)C(=O)C=C(O)C1=O [EMBELIN] | 15.6 µM |

These molecules were tested on SK-MEL3 (assay: cells). Settings: Homo sapiens.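 Note: growth inhibition of human SK-MEL-3 cells, read out with a cell viability assay.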
Format: functional, cell-based, SK-MEL-3
Description: SANGER: Inhibition of human SK-MEL-3 cell growth in a cell viability assay.

| SMILES | IC50 |
| --- | --- |
| CCCCCCCCCCCC1=C(O)C(=O)C=C(O)C1=O [EMBELIN] | 16.2 µM |

What follows are molecules tested on OVCAR-3 (assay: cells). Settings: Homo sapiens.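 Note: growth inhibition of human OVCAR-3 cells, determined by a cell viability assay.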
Format: functional, cell-based
Description: SANGER: Inhibition of human OVCAR-3 cell growth in a cell viability assay.

| SMILES | IC50 |
| --- | --- |
| CCCCCCCCCCCC1=C(O)C(=O)C=C(O)C1=O [EMBELIN] | 23.6 µM |

The molecules below were run on CCF-STTG1 (assay: cells). Settings: Homo sapiens.
Format: functional, cell-based
Description: SANGER: Inhibition of human CCF-STTG1 cell growth in a cell viability assay.

| SMILES | IC50 |
| --- | --- |
| CCCCCCCCCCCC1=C(O)C(=O)C=C(O)C1=O [EMBELIN] | 14 µM |

These molecules were tested on MCF7 (assay: cells). Settings: Homo sapiens.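 Note: growth inhibition of human MCF7 cells, read out with a cell viability assay.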
Format: functional, cell-based
Description: SANGER: Inhibition of human MCF7 cell growth in a cell viability assay.

| SMILES | IC50 |
| --- | --- |
| CCCCCCCCCCCC1=C(O)C(=O)C=C(O)C1=O [EMBELIN] | 8.35 µM |

What follows are molecules tested on OAW-42 (assay: cells). Settings: Homo sapiens.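 Note: growth inhibition of OAW-42 cells, read out with a cell viability assay.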
Format: functional, cell-based
Description: SANGER: Inhibition of human OAW-42 cell growth in a cell viability assay.

| SMILES | IC50 |
| --- | --- |
| CCCCCCCCCCCC1=C(O)C(=O)C=C(O)C1=O [EMBELIN] | > 32 µM |

Each molecule was assayed on D-392MG (assay: cells). Settings: Homo sapiens.
Format: functional, cell-based

| SMILES | IC50 |
| --- | --- |
| CCCCCCCCCCCC1=C(O)C(=O)C=C(O)C1=O [EMBELIN] | 16.6 µM |

Each molecule was assayed on SK-CO-1 (assay: cells). Settings: Homo sapiens.
Format: functional, cell-based
Description: SANGER: Inhibition of human SK-CO-1 cell growth in a cell viability assay.

| SMILES | IC50 |
| --- | --- |
| CCCCCCCCCCCC1=C(O)C(=O)C=C(O)C1=O [EMBELIN] | 13.6 µM |

What follows are molecules tested on NCI-H1963 (assay: cells). Settings: Homo sapiens, NCI-H1963.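 Note: cell growth inhibition of the human line, determined with a cell viability assay.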
Format: functional, cell-based, Homo sapiens
Description: SANGER: Inhibition of human NCI-H1963 cell growth in a cell viability assay.

| SMILES | IC50 |
| --- | --- |
| CCCCCCCCCCCC1=C(O)C(=O)C=C(O)C1=O [EMBELIN] | > 32 µM |

Each molecule was assayed on ECC4 (assay: cells). Settings: Homo sapiens, ECC4.
Format: functional, cell-based, Homo sapiens
Description: SANGER: Inhibition of human ECC4 cell growth in a cell viability assay.

| SMILES | IC50 |
| --- | --- |
| CCCCCCCCCCCC1=C(O)C(=O)C=C(O)C1=O [EMBELIN] | 23.8 µM |

What follows are molecules tested on DMS-53 (assay: cells). Settings: Homo sapiens.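 Note: cell viability assay measuring growth inhibition of human DMS-53 cells.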
Format: functional, cell-based
Description: SANGER: Inhibition of human DMS-53 cell growth in a cell viability assay.

| SMILES | IC50 |
| --- | --- |
| CCCCCCCCCCCC1=C(O)C(=O)C=C(O)C1=O [EMBELIN] | 15.5 µM |

These molecules were tested on EFO-21 (assay: cells). Settings: Homo sapiens.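 Note: growth inhibition of EFO-21 cells measured with a viability assay.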
Format: functional, cell-based
Description: SANGER: Inhibition of human EFO-21 cell growth in a cell viability assay.

| SMILES | IC50 |
| --- | --- |
| CCCCCCCCCCCC1=C(O)C(=O)C=C(O)C1=O [EMBELIN] | 15.6 µM |

What follows are molecules tested on AU565 (assay: cells). Settings: Homo sapiens.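 Note: cell viability assay measuring growth inhibition of human AU565 cells.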
Format: functional, cell-based
Description: SANGER: Inhibition of human AU565 cell growth in a cell viability assay.

| SMILES | IC50 |
| --- | --- |
| CCCCCCCCCCCC1=C(O)C(=O)C=C(O)C1=O [EMBELIN] | 9.91 µM |

Each molecule was assayed on UACC-812 (assay: cells). Settings: Homo sapiens.
Format: functional, cell-based
Description: SANGER: Inhibition of human UACC-812 cell growth in a cell viability assay.

| SMILES | IC50 |
| --- | --- |
| CCCCCCCCCCCC1=C(O)C(=O)C=C(O)C1=O [EMBELIN] | > 32 µM |

What follows are molecules tested on PLC-PRF-5 (assay: cells). Settings: Homo sapiens.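 Note: growth inhibition of human PLC-PRF-5 cells, read out with a viability assay.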
Format: functional, cell-based
Description: SANGER: Inhibition of human PLC-PRF-5 cell growth in a cell viability assay.

| SMILES | IC50 |
| --- | --- |
| CCCCCCCCCCCC1=C(O)C(=O)C=C(O)C1=O [EMBELIN] | 6.93 µM |

The molecules below were run on SNU-387 (assay: cells). Settings: Homo sapiens.
Format: functional, cell-based
Description: SANGER: Inhibition of human SNU-387 cell growth in a cell viability assay.

| SMILES | IC50 |
| --- | --- |
| CCCCCCCCCCCC1=C(O)C(=O)C=C(O)C1=O [EMBELIN] | 27.2 µM |

The molecules below were run on C-4-II (assay: SANGER: Inhibition of human C-4-II cell growth in a cell viability assay.). Settings: not given.
Format: functional, cell-based

| SMILES | IC50 |
| --- | --- |
| CCCCCCCCCCCC1=C(O)C(=O)C=C(O)C1=O [EMBELIN] | > 32 µM |

These molecules were tested on SCC-9 (assay: cells). Settings: Homo sapiens.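 Note: Read-out is a cell viability assay, with values giving inhibition of cell growth.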
Format: functional, cell-based
Description: SANGER: Inhibition of human SCC-9 cell growth in a cell viability assay.

| SMILES | IC50 |
| --- | --- |
| CCCCCCCCCCCC1=C(O)C(=O)C=C(O)C1=O [EMBELIN] | > 32 µM |

The molecules below were run on LOUCY (assay: cells). Settings: Homo sapiens, LOUCY.
Format: functional, cell-based, Homo sapiens
Description: SANGER: Inhibition of human LOUCY cell growth in a cell viability assay.

| SMILES | IC50 |
| --- | --- |
| CCCCCCCCCCCC1=C(O)C(=O)C=C(O)C1=O [EMBELIN] | 5.1 µM |

Each molecule was assayed on LCLC-97TM1 (assay: cells). Settings: Homo sapiens.
Format: functional, cell-based
Description: SANGER: Inhibition of human LCLC-97TM1 cell growth in a cell viability assay.

| SMILES | IC50 |
| --- | --- |
| CCCCCCCCCCCC1=C(O)C(=O)C=C(O)C1=O [EMBELIN] | 5.96 µM |

What follows are molecules tested on NCI-H358 (assay: cells). Settings: Homo sapiens.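 Note: growth inhibition of NCI-H358 human cells, read out with a cell viability assay.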
Format: functional, cell-based
Description: SANGER: Inhibition of human NCI-H358 cell growth in a cell viability assay.

| SMILES | IC50 |
| --- | --- |
| CCCCCCCCCCCC1=C(O)C(=O)C=C(O)C1=O [EMBELIN] | 11.1 µM |

Each molecule was assayed on RL (assay: cells). Settings: Homo sapiens, RL.
Format: functional, cell-based, Homo sapiens
Description: SANGER: Inhibition of human RL cell growth in a cell viability assay.

| SMILES | IC50 |
| --- | --- |
| CCCCCCCCCCCC1=C(O)C(=O)C=C(O)C1=O [EMBELIN] | > 32 µM |
